Patent US11492335B2, “Aryl or heteroaryl triazolone derivatives or salts thereof, or pharmaceutical compositions comprising the same” (YUHAN CORPORATION, priority 2018, dated 2022)
Structures can show the parent of a compound that is named as a salt. Where two headings read alike, the source gives them in different places.

Key:
Format in all cases: biochemical
recombinant human VAP-1 = molecular target: T1, recombinant human VAP-1 (Homo sapiens, UniProt Q16853); assay: Activity on recombinant human VAP-1, Amplex Red HRP-coupled hydrogen peroxide assay, benzylamine substrate; details: recombinant human VAP-1, benzylamine substrate, read-out: Inhibitory Activity (IC50, nM) human VAP-1
T1 construct: purchased R&D systems
T1 sequence (Q16853 1-763): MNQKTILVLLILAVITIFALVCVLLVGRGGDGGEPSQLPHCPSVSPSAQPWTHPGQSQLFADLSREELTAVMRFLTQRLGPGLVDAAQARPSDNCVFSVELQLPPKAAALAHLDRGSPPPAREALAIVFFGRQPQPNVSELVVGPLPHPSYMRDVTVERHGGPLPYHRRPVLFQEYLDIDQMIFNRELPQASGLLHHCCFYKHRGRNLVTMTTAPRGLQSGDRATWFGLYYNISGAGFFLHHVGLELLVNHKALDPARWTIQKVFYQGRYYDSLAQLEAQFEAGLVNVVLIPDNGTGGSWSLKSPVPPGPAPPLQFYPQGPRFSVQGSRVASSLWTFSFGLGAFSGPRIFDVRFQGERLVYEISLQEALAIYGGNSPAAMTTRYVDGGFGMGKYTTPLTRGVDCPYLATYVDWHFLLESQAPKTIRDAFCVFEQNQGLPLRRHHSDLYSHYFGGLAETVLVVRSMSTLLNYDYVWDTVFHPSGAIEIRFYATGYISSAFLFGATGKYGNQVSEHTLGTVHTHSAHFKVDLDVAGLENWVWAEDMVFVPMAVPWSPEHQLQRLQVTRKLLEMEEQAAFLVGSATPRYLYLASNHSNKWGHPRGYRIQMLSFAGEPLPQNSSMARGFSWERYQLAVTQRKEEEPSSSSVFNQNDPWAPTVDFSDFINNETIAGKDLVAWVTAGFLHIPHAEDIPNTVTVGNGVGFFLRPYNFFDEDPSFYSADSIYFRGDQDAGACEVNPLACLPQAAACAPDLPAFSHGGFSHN
Summary of the method: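 8-point 1:3 dilutions, final DMSO <1%; 30 min enzyme preincubation, 37 °C, pH 7.4 phosphate. Start: 1 mM benzylamine + 200 uM Amplex Red + 1 U/mL HRP. Read ex544/em590 over 1-2 h; % rate decrease vs DMSO control, 4-parameter logistic IC50.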

[1] = molecular target: T2, recombinant human MAO-A (monoamine oxidase-A) (Homo sapiens, UniProt P21397); assay: Activity on recombinant human MAO-A, Amplex Red method, 0.5 mM tyramine substrate; details: read-out: Inhibitory Activity (IC50, nM) MAO-A
T2 construct: purchased Sigma-Aldrich
T2 sequence (P21397 1-527): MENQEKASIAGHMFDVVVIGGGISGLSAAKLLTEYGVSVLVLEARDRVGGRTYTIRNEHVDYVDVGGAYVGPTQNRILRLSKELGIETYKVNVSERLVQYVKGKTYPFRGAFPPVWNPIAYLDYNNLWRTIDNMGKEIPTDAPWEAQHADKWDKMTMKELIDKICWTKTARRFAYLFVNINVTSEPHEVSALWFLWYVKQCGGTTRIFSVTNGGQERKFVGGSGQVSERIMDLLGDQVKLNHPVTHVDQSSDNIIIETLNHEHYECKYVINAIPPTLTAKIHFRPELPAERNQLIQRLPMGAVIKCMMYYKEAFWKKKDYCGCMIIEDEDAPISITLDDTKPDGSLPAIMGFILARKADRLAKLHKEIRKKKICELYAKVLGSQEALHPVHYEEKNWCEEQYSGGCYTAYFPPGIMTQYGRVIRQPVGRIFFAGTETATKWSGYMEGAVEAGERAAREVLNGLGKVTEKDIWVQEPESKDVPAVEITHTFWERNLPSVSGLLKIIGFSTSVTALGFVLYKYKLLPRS
Summary of the method: (§1)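 HRP-coupled Amplex Red H2O2 assay, 50 mM sodium phosphate pH 7.4; compounds (8-point 1:3 series, final DMSO <1%) preincubated with enzyme 30 min at 37° C, then 200 uM Amplex Red, 1 U/mL HRP and substrate (MAO-A 0.5 mM tyramine; MAO-B 1 mM benzylamine) added. Resorufin fluorescence (ex 544/em 590 nm) read over 1-2 h; IC50 from four-parameter logistic fit.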

[2] = molecular target: T3, recombinant human MAO-B (monoamine oxidase-B) (Homo sapiens, UniProt P27338); assay: Activity on recombinant human MAO-B, Amplex Red method, 1 mM benzylamine substrate; details: read-out: Inhibitory Activity (IC50, nM) MAO-B
T3 construct: purchased Sigma-Aldrich
T3 sequence (P27338 1-520): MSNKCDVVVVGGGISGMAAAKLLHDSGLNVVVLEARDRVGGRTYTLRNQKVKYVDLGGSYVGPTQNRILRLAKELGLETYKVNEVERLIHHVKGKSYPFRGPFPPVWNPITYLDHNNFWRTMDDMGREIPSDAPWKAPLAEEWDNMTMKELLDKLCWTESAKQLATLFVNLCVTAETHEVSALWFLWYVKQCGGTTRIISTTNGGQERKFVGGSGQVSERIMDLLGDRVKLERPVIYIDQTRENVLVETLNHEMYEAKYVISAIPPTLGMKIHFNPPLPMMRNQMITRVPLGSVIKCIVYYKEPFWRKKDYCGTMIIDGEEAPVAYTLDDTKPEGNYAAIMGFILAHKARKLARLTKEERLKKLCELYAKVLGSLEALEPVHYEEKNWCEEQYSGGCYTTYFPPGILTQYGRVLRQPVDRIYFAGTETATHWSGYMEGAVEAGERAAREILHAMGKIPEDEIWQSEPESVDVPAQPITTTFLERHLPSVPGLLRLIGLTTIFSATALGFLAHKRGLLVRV
Summary of the method: as §1

[3] = molecular target: T4, recombinant human DAO (diamine oxidase) (Homo sapiens, UniProt P19801); assay: Activity on recombinant human DAO, Amplex Red method, 1 mM putrescine substrate; details: recombinant human DAO, read-out: Inhibitory Activity (IC50, nM) DAO
T4 construct: purchased R&D systems
T4 sequence (P19801 20-751): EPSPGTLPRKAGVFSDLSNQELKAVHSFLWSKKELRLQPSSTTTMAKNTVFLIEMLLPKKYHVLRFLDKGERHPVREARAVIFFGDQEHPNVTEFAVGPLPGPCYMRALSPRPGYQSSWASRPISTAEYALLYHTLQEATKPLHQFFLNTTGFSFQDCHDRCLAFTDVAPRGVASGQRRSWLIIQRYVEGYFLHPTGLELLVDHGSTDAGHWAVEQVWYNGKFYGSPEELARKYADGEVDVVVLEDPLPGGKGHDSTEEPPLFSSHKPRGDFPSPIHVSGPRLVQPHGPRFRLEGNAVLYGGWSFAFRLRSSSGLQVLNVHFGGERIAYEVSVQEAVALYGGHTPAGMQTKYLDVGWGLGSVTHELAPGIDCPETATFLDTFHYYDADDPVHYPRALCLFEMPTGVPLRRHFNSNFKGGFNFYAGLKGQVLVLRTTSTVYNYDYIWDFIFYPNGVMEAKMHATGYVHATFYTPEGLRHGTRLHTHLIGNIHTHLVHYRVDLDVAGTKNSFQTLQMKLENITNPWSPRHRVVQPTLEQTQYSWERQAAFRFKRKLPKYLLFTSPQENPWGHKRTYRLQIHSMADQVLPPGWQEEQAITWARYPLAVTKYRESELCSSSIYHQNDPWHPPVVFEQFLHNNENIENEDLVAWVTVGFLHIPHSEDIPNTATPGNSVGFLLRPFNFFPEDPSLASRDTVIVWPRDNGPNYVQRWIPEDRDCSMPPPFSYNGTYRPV
Summary of the method: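 Inhibition of recombinant human DAO (diamine oxidase, R&D systems) was assessed with the Amplex Red Hydrogen Peroxide Assay Kit. Hydrogen peroxide produced from 1 mM putrescine was detected through an HRP-coupled reaction that converts Amplex Red into fluorescent resorufin, read at 544 nm excitation and 590 nm emission. IC50 values came from four-parameter logistic fits in GraphPad Prism.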

[4] = 1 mM putrescine, * = between 10 and 100 nM, ** = between 300 and 1000 nM

IC50 (recombinant human VAP-1; 30 min preincubation at 37° C.) | IC50 ([1]; 0.5 mM tyramine) | IC50 ([2]; 1 mM benzylamine) | IC50 [3, 4] | IC50 (recombinant human VAP-1) | IC50 ([1]; 0.5 mM tyramine substrate) | IC50 ([2]; 1 mM benzylamine substrate) | IC50 ([3]; 1 mM putrescine substrate) | SMILES
1.3 nM | > 100000 nM | 3220 nM | < 100 nM |  |  |  |  | CC(=O)Nc1cc(-c2cc(C)c(-n3cnn(C/C(=C/F)CN)c3=O)cn2)ccn1 [Example 123, N-(5-{1-[(2E)-2-(aminomethyl)-3-fluoroprop-2-en-1-yl]-5-oxo-1,5-dihydro-4H-1,2,4-triazol-4-yl}-4-methyl-2,4′-bipyridin-2′-yl)acetamide]
0.89 nM | > 100000 nM | > 10000 nM | < 100 nM |  |  |  |  | Cc1cc(-c2ccc(N3CCOCC3)nc2)ncc1-n1cnn(C/C(=C/F)CN)c1=O [Example 124, 2-[(2E)-2-(aminomethyl)-3-fluoroprop-2-en-1-yl]-4-[4-methyl-6′-(morpholin-4-yl)-2,3′-bipyridin-5-yl]-2,4-dihydro-3H-1,2,4-triazol-3-one]
0.64 nM | > 100000 nM | > 10000 nM | < 100 nM |  |  |  |  | NC/C(=C\F)Cn1ncn(-c2cccc(-c3ccc(N4CCOCC4)c(Cl)c3)c2)c1=O [Example 76, 2-[(2E)-2-(aminomethyl)-3-fluoroprop-2-en-1-yl]-4-[3′-chloro-4′-(morpholin-4-yl)biphenyl-3-yl]-2,4-dihydro-3H-1,2,4-triazol-3-one hydrochloride]
 |  |  |  | 0.28 nM | > 100000 nM | > 10000 nM | < 30 nM | NC/C(=C\F)Cn1ncn(-c2cc(-c3ccc(N4CCOCC4)nc3)ccn2)c1=O [Example 169, 2-[(2E)-2-(aminomethyl)-3-fluoroprop-2-en-1-yl]-4-[6-(morpholin-4-yl)-3,4′-bipyridin-2′-yl]-2,4-dihydro-3H-1,2,4-triazol-3-one]
 |  |  |  | 0.45 nM | > 100000 nM | 940 nM | < 10 nM | NC/C(=C\F)Cn1ncn(-c2cccc(-c3ccc(C(F)(F)F)nc3)n2)c1=O [Example 187, 2-[(2E)-2-(aminomethyl)-3-fluoroprop-2-en-1-yl]-4-[6′-(trifluoromethyl)-2,3′-bipyridin-6-yl]-2,4-dihydro-3H-1,2,4-triazol-3-one hydrochloride]
 |  |  |  | 0.41 nM | > 100000 nM | > 10000 nM | 5.9 nM | NC/C(=C\F)Cn1ncn(-c2cc(-c3ccc4sc(N)nc4c3)ccn2)c1=O [Example 173, 4-[4-(2-amino-1,3-benzothiazol-5-yl)pyridin-2-yl]-2-[(2E)-2-(aminomethyl)-3-fluoroprop-2-en-1-yl]-2,4-dihydro-3H-1,2,4-triazol-3-one]
0.21 nM | 198 nM | < 10 nM | 1.6 nM |  |  |  |  | NC/C(=C\F)Cn1ncn(-c2ccc(-c3ccc4c(c3)OCO4)cc2F)c1=O [Example 45, 2-[(2E)-2-(aminomethyl)-3-fluoroprop-2-en-1-yl]-4-[4-(1,3-benzodioxol-5-yl)-2-fluorophenyl]-2,4-dihydro-3H-1,2,4-triazol-3-one hydrochloride]
 |  |  |  | 0.5 nM | > 100000 nM | 1200 nM | 19 nM | CN(C)c1ncc(-c2cccc(-n3cnn(C/C(=C/F)CN)c3=O)n2)cc1F [Example 191, 2-[(2E)-2-(aminomethyl)-3-fluoroprop-2-en-1-yl]-4-[6′-(dimethylamino)-5′-fluoro-2,3′-bipyridin-6-yl]-2,4-dihydro-3H-1,2,4-triazol-3-one hydrochloride]
 |  |  |  | 0.44 nM | 1470 nM | > 10000 nM | < 30 nM | CC(=O)Nc1ccc(-c2cccc(-n3cnn(C/C(=C/F)CN)c3=O)n2)cc1 [Example 175, N-[4-(6-{1-[(2E)-2-(aminomethyl)-3-fluoroprop-2-en-1-yl]-5-oxo-1,5-dihydro-4H-1,2,4-triazol-4-yl}pyridin-2-yl)phenyl]acetamide]
 |  |  |  | 0.3 nM | > 100000 nM | 26000 nM | 38 nM | Cc1cc(-c2ccc3c(c2)NC(=O)OC3)cnc1-n1cnn(C/C(=C/F)CN)c1=O [Example 156, 7-(6-{1-[(2E)-2-(aminomethyl)-3-fluoroprop-2-en-1-yl]-5-oxo-1,5-dihydro-4H-1,2,4-triazol-4-yl}-5-methylpyridin-3-yl)-1,4-dihydro-2H-3,1-benzoxazin-2-one hydrochloride]
 |  |  |  | 1.2 nM | > 100000 nM | 2710 nM | 2.9 nM | NC/C(=C\F)Cn1ncn(-c2cccc(-c3ccc4c(c3)OCCO4)n2)c1=O [Example 194, 2-[(2E)-2-(aminomethyl)-3-fluoroprop-2-en-1-yl]-4-[6-(2,3-dihydro-1,4-benzodioxin-6-yl)pyridin-2-yl]-2,4-dihydro-3H-1,2,4-triazol-3-one]
